In US20230041996A1, “CALCIUM-SENSING RECEPTOR AGONIST COMPOUND AND APPLICATION THEREOF” (BEIJING TUO JIE BIOPHARMACEUTICAL CO. LTD., priority 2019, published 2023):
Square brackets hold non-standard residues; d marks the D form. Peptide text beside a SMILES is read from it. * marks the point of attachment. dPhe(4-Me) = Cc1ccc(C[C@@H](N)C(=O)O)cc1; Cys(free,S-linked) = N[C@@H](CS*)C(=O)O; d(hLeu) = CC(C)CC[C@@H](N)C(=O)O; dChg = N[C@@H](C(=O)O)C1CCCCC1; dAbu = CC[C@@H](N)C(=O)O

Columns and labels:
human red blood cells = test: Hemolytic effect on human red blood cells in vitro (absorbance at 540 nm); format: cell-based; conditions: 37° C., 1 h, FIG. 1
Experimental: To evaluate the hemolytic effect of the compounds disclosed herein on red blood cells in vitro, human whole blood (100 μL) was taken and mixed with a phosphate buffer. The mixture was centrifuged at 4° C. for 10 min and the supernatant was discarded. The red blood cells were resuspended in PBS buffer (900 μL) and centrifuged at 4° C. for 10 min with the supernatant discarded, and the procedures above were repeated once. The test example compounds were dissolved in 1×PBS buffer to a final concentration of 100 μg/mL. The red blood cells were resuspended in solutions of various test example compounds, an octylphenoxy poly(ethyleneoxy)ethanol-100 solution or PBS buffer, and incubated at 37° C. for 1 h. After incubation, the cells were centrifuged at 4° C. for 10 min and the supernatant (100 μL) was pipetted and transferred to a 96-well plate. The absorbance at 540 nm was detected for evaluating the hemolytic effect of the test example compounds on red blood cells in vitro.

[1] = biological target: T1, human calcium-sensing receptor (CaSR) (Homo sapiens, UniProt P41180); test: Agonist activity on human calcium-sensing receptor (IP-One HTRF in stably transfected HEK293/CaSR cells); format: cell-based; conditions: HEK293/CaSR cells, IP-One production, 60 min at 37° C., CaCl2 1.2 mM; read-out: EC50 for calcium-sensing receptor
T1 construct: host or cells: HEK293
T1 sequence (P41180 20-1078): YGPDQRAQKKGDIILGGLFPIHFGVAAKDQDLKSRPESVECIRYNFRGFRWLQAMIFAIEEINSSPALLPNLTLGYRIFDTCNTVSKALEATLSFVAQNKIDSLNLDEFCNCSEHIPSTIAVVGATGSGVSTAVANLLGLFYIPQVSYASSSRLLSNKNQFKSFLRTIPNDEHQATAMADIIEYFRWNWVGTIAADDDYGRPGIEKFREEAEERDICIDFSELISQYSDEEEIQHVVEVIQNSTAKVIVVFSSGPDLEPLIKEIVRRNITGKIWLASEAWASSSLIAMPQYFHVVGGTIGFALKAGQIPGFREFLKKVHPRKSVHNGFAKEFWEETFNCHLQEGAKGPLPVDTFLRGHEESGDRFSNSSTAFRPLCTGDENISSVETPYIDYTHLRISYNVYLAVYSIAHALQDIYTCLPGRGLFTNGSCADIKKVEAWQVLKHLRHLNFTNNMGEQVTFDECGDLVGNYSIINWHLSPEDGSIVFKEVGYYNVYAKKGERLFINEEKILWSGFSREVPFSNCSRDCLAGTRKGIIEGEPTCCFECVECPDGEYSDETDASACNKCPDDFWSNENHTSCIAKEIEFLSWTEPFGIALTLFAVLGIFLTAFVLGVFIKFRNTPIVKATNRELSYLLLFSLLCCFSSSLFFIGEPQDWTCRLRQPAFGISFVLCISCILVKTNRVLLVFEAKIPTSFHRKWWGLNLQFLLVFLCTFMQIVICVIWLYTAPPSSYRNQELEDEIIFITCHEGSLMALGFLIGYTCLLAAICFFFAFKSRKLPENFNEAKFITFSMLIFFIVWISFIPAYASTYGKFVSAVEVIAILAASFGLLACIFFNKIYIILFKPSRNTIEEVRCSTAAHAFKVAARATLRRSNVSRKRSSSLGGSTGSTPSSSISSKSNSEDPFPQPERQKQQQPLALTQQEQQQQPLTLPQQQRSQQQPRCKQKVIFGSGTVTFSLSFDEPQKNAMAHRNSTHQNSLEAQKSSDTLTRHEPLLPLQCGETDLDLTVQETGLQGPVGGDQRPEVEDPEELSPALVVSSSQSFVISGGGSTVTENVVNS
Experimental: 3.1.1 Objective: The test example is intended to measure the agonist activity of compounds 1-38 on the human calcium-sensing receptor (CaSR).
Stably transfected HEK293/CaSR cells (source: Pharmaron) were cultured in a complete medium (composition: DMEM, high glucose+10% FBS+2 mM GlutaMAX+1× Penicillin-Streptomycin+200 μg/mL Hygromycin B) and incubated at 37° C./5% CO2 till 70%-90% cell confluence. The cells were digested with TrypLE, inoculated into 384-well cell culture plates, and cultured overnight at 37° C./5% CO2. After buffer exchange, stimulation buffer (HEPES 10 mM, MgCl2 0.5 mM, KCl 4.2 mM, NaCl 146 mM, glucose 5.5 mM, LiCl 50 mM, CaCl2 1.2 mM) and various concentrations of the test example compounds were added and incubated at 37° C. for 60 min. Production of IP-One in cells was detected according to the procedures in the Cisbio IP-One Tb kit instructions. The EC50 values of various test example compounds in influencing human calcium-sensing receptor was calculated by software after the raw data of the example compounds were collected, so as to evaluate the agonist activity of the example compounds on human calcium-sensing receptor.
HTRF signal was read by an EnVision detector with an excitation wavelength of 320 nm and emission wavelengths of 620 nm and 665 nm. The signal ratio (665 nm/620 nm×10,000) was calculated and fitted non-linearly to the sample concentration in GraphPad Prism 6 using a four-parameter equation to give EC50 values of the test example compounds 1-38.

[2] = test system: rat peritoneal mast cells; test: In vitro histamine release in rat peritoneal mast cells (histamine ELISA); format: cell-based; conditions: for Relative fold of histamine release in vitro: test compound final concentration 10 μM, 15 min at 37° C., relative to PBS buffer (1.00)
Experimental: To evaluate the in vitro histamine release levels induced by some of the test example compounds, rat peritoneal mast cells were collected by lavaging rat peritoneum with a lavage buffer (cold HBSS+25 mM HEPES containing heparin 5 U/mL, pH 7.4). After collection, the cells were centrifuged, and the lavage buffer was discarded. The cells were resuspended and washed twice with a stimulation buffer (HBSS+25 mM HEPES+1 mM CaCl2), pH 7.4). The cells were plated at a density of 10^5 cell/well (200 μL/well) and incubated at 37° C. for 15 min with positive control compound 48/80 (final concentration: 4 μg/mL), test example compounds (final concentration: 10 μM) or vehicle control. The cells were centrifuged, and cell supernatant was collected and tested for histamine concentration according to LDN Histamine ELISA kit (BAE-1000) instructions.

5/6 nephrectomized rats = test: In vivo efficacy in 5/6 nephrectomized rat model after continuous administration (plasma parathyroid hormone, serum calcium)
From the text: 3.5.1 Objective: to evaluate the efficacy of some of the compounds disclosed herein in reducing plasma parathyroid hormone level and serum calcium level after continuous administration in a 5/6 nephrectomized rat model.
The rats were adapted. After anesthesia, ⅔ of the left kidney was surgically resected, and after 1 week of recovery, the right kidney was resected to establish the 5/6 nephrectomized rat model. After the second resection, the animals were normally fed for 2 weeks, tested for creatinine (CREA) and plasma parathyroid hormone level, and randomized as per the parathyroid hormone level into 4 groups of 10, including normal saline group, compound 17—low dose group, compound 17—high dose group and etelcalcetide group. After randomization, the normal saline group, compound 17—low dose group, compound 17—high dose group and etelcalcetide group were respectively administered with 1 dose of normal saline, 1 mg/kg of compound 17, 2 mg/kg of compound 17 and 1 mg/kg of etelcalcetide through the tail vein daily for 28 days. During the treatment period, parameters such as animal weight, plasma parathyroid hormone level and serum calcium were detected. The first day of treatment was taken as day 1.

| Compound | EC50 [1] | Relative fold of histamine release in vitro [2] | also measured |
| --- | --- | --- | --- |
| octylphenoxy poly(ethyleneoxy)ethanol-100 [reference compound] | – | – | hemolytic effect on red blood cells (human red blood cells; positive control solution): significant hemolytic effect |
| CC(=O)N[C@H](CSSC[C@H](N)C(=O)O)C(=O)N[C@H](CCCNC(=N)N)C(=O)N[C@H](CCCNC(=N)N)C(=O)N[C@H](Cc1ccc(C)cc1)C(=O)N[C@H](CCCNC(=N)N)C(=O)N[C@H](C)C(=O)N[C@H](CCCNC(=N)N)C(N)=O [Compound 12, Ac-c(C)-r-r-[D-Phe(4-CH3)]-r-a-r-NH2] (Ac-[dC](Cys(free,S-linked))[dR][dR][dPhe(4-Me)][dR][dA][dR]-NH2) | 1.28 µM | 2.81 | hemolytic effect on red blood cells (human red blood cells; 100 μg/mL in PBS): no significant hemolytic effect |
| CC(=O)N[C@H](CSSC[C@H](N)C(=O)O)C(=O)N[C@H](C)C(=O)N[C@H](CCCNC(=N)N)C(=O)N[C@H](CCCNC(=N)N)C(=O)N[C@H](CCCNC(=N)N)C(=O)N[C@H](C)C(=O)N[C@H](CCCNC(=N)N)C(N)=O [Etelcalcetide, Ac-c(C)-a-r-r-r-a-r-NH2, reference compound] | 6.78 µM | 1.70 | serum calcium reduction (5/6 nephrectomized rats; after administration on days 1, 14 and 28): reversible serum calcium reduction; extent of serum calcium reduction with the period of treatment (5/6 nephrectomized rats; minimum of serum calcium on days 14 and 28 compared to day 1): did not increase with the period of treatment |
| CC(=O)N[C@H](CSSC[C@H](N)C(=O)O)C(=O)N[C@H](CCCNC(=N)N)C(=O)N[C@H](CCCNC(=N)N)C(=O)N[C@H](CCC(C)C)C(=O)N[C@H](CCCNC(=N)N)C(=O)N[C@H](C)C(=O)N[C@H](CCCNC(=N)N)C(N)=O [Compound 19, Ac-c(C)-r-r-(D-hLeu)-r-a-r-NH2] (Ac-[dC](Cys(free,S-linked))[dR][dR][d(hLeu)][dR][dA][dR]-NH2) | 2.05 µM | 2.07 | hemolytic effect on red blood cells (human red blood cells; 100 μg/mL in PBS): no significant hemolytic effect |
| CC(=O)N[C@H](CSSC[C@H](N)C(=O)O)C(=O)N[C@H](CCCNC(=N)N)C(=O)N[C@H](CCCNC(=N)N)C(=O)N[C@@H](C(=O)N[C@H](CCCNC(=N)N)C(=O)N[C@H](CO)C(=O)N[C@H](CCCNC(=N)N)C(N)=O)C1CCCCC1 [Compound 35, Ac-c(C)-r-r-(D-Chg)-r-s-r-NH2] (Ac-[dC](Cys(free,S-linked))[dR][dR][dChg][dR][dS][dR]-NH2) | 12.9 µM | 2.06 | – |
| CC(=O)N[C@H](CSSC[C@H](N)C(=O)O)C(=O)N[C@H](CCCNC(=N)N)C(=O)N[C@H](CCCNC(=N)N)C(=O)N[C@H](CO)C(=O)N[C@H](CCCNC(=N)N)C(=O)N[C@H](CO)C(=O)N[C@H](CCCNC(=N)N)C(N)=O [Compound 25, Ac-c(C)-r-r-s-r-s-r-NH2] (Ac-[dC](Cys(free,S-linked))[dR][dR][dS][dR][dS][dR]-NH2) | 10.1 µM | 1.65 | – |
| CC(=O)N[C@H](CSSC[C@H](N)C(=O)O)C(=O)N[C@H](CCCNC(=N)N)C(=O)N[C@H](CCCNC(=N)N)C(=O)N[C@H](CCC(N)=O)C(=O)N[C@H](CCCNC(=N)N)C(=O)N[C@H](CO)C(=O)N[C@H](CCCNC(=N)N)C(N)=O [Compound 26, Ac-c(C)-r-r-q-r-s-r-NH2] (Ac-[dC](Cys(free,S-linked))[dR][dR][dQ][dR][dS][dR]-NH2) | 9.24 µM | 1.73 | – |
| CC[C@@H](NC(=O)[C@@H](CCCNC(=N)N)NC(=O)[C@@H](CCCNC(=N)N)NC(=O)[C@@H](CSSC[C@H](N)C(=O)O)NC(C)=O)C(=O)N[C@H](CCCNC(=N)N)C(=O)NCC(=O)N[C@H](CCCNC(=N)N)C(N)=O [Compound 32, Ac-c(C)-r-r-(D-Abu)-r-G-r-NH2] (Ac-[dC](Cys(free,S-linked))[dR][dR][dAbu][dR]G[dR]-NH2) | 13.1 µM | 1.41 | histamine release levels in rat peritoneal mast cells in vitro relative to etelcalcetide ([2]; 10 μM, comparison with etelcalcetide): reduction in histamine release levels |
| CC(=O)N[C@H](CSSC[C@H](N)C(=O)O)C(=O)N[C@H](CCCNC(=N)N)C(=O)N[C@H](CCCNC(=N)N)C(=O)N[C@@H](C(=O)N[C@H](CCCNC(=N)N)C(=O)N[C@H](C)C(=O)N[C@H](CCCNC(=N)N)C(N)=O)C1CCCCC1 [Compound 20, Ac-c(C)-r-r-(D-Chg)-r-a-r-NH2] (Ac-[dC](Cys(free,S-linked))[dR][dR][dChg][dR][dA][dR]-NH2) | 7.53 µM | 2.33 | – |
| CC(=O)N[C@H](CSSC[C@H](N)C(=O)O)C(=O)N[C@H](CO)C(=O)N[C@H](CCCNC(=N)N)C(=O)N[C@H](CCCNC(=N)N)C(=O)N[C@H](CCCNC(=N)N)C(=O)N[C@H](CO)C(=O)N[C@H](CCCNC(=N)N)C(N)=O [Compound 6, Ac-c(C)-s-r-r-r-s-r-NH2] (Ac-[dC](Cys(free,S-linked))[dS][dR][dR][dR][dS][dR]-NH2) | 11.6 µM | 1.65 | – |
